Consider 6 molecules from ChEMBL document CHEMBL1201862, “PubChem BioAssay data set” (2004).

Structures are written as SMILES. Calls of active or inactive are those of the source.

Test [1] relates to A-375. In words: MITF: Counter assay: A375 proliferation Measured in Cell-Based System Using Plate Reader - 2084-03_Inhibitor_Dose_DryPowder_Activity. [Related pubchem assays (depositor defined):AID488944]. The test is classed as functional. The conditions noted are these: Homo sapiens.
Test [2] has as its target T1, Microphthalmia-associated transcription factor (Homo sapiens, UniProt O75030).
T1 sequence (O75030 whole entry): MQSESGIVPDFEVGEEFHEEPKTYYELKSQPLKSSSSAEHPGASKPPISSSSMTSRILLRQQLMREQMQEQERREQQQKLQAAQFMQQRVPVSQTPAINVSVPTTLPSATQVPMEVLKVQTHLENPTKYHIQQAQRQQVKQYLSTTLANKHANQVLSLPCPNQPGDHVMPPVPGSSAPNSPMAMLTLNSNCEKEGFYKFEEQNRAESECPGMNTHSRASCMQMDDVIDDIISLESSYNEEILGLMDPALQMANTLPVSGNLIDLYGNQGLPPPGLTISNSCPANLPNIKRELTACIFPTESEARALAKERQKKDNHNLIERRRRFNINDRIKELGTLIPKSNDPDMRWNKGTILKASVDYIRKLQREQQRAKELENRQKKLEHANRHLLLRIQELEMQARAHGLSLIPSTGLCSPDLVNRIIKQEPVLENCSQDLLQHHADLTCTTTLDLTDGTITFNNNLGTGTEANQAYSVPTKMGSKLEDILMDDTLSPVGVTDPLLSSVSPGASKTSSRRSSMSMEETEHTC
In words: reducers of TRPM1 reporter luminescence, concentration series – cell-based, SK-MEL-5, cherry-picked, set 3, MITF inhibitor project, dose response (AID 493073).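 Further: SK-MEL-5 melanoma cells with luciferase driven by the MITF target TRPM1 promoter.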 In kind it is functional.

A short description of test [3]: viability of HCT116 lacking mutant beta-catenin – cell-based, human colon tumor, dose response (AID 1045).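 Further: HCT116 colon tumor cells with beta catenin knocked out; cells exposed to compound for 60 hours.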 The test is classed as functional.
For the next test, the target named is Cytochrome P450 2D6 (Homo sapiens, UniProt P10635).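 Further: CYP2D6 member of a cytochrome P450 panel assay.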
Cytochrome P450 2D6, sequence (P10635 whole entry): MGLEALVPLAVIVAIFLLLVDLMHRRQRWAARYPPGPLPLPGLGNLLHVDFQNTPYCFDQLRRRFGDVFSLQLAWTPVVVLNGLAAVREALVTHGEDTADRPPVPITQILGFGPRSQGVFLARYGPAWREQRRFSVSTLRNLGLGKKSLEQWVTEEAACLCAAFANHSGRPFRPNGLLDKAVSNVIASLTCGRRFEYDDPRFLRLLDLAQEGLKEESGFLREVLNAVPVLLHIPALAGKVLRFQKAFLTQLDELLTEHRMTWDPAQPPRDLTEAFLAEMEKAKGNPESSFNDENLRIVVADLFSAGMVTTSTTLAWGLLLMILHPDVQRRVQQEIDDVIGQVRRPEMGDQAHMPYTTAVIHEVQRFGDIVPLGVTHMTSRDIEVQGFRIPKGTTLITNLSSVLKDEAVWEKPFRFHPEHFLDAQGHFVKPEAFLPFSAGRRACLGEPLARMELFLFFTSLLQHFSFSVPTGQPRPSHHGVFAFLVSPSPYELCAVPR
Test [4] in a line: viability of PTEN-deleted HCT116 cells – cell-based, HCT116 PTEN knockout, dose response (AID 1047).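 Further: HCT116 colon tumor cells with PTEN knocked out; cells exposed to compound for 60 hours before readout; potency for loss of cell viability measured by luminescence.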 In kind it is functional.
Test [5] concerns Escherichia coli. The test is described as follows: microbe, parasite or virus in culture.
Test [6] deals with Escherichia coli. The test is described as follows: microbe, parasite or virus in culture. The source holds these as a separate data set.
In test [7] the test system is A-375. The test is described as follows: proliferation inhibition in MITF-low A375 cells – cell-based, cherry-pick samples, set 2, counter-screen for MITF modulator project, dose response (AID 540335). The test is classed as functional. The conditions noted are these: Homo sapiens. For orientation: A counterscreen serves to expose hits that act by an unwanted route or on another target.

The target in test [8] is Induced myeloid leukemia cell differentiation protein Mcl-1 (Homo sapiens, UniProt Q07820). In kind it is functional.
For a further test, the target named is T2, Phosphomannomutase 2 (Homo sapiens, UniProt O15305).
T2 sequence (O15305 whole entry): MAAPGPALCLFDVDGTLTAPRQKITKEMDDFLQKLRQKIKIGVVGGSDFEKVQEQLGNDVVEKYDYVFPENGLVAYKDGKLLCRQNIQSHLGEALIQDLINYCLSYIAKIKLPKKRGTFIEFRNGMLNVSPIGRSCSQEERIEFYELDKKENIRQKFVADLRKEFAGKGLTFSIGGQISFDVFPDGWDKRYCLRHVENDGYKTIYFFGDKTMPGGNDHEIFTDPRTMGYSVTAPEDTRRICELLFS
The test is described as follows: Counter screen SAR assay for PMM2 inhibitors via a fluorescence intensity assay. [Related pubchem assays (depositor defined):AID1545, AID1574].

Test [9] concerns the target DNA dC->dU-editing enzyme APOBEC-3A (Homo sapiens, UniProt P31941). The test is described as follows: Dose Response confirmation of small molecule APOBEC3A DNA Deaminase Inhibitors via a fluorescence-based single-stranded DNA deaminase assay. [Related pubchem assays (depositor defined):AID493011, AID493024]. The test is classed as functional.
The target of test [10] is T3, Rac GTPase-activating protein 1 (Homo sapiens, UniProt Q9H0H5).
T3 sequence (Q9H0H5 whole entry): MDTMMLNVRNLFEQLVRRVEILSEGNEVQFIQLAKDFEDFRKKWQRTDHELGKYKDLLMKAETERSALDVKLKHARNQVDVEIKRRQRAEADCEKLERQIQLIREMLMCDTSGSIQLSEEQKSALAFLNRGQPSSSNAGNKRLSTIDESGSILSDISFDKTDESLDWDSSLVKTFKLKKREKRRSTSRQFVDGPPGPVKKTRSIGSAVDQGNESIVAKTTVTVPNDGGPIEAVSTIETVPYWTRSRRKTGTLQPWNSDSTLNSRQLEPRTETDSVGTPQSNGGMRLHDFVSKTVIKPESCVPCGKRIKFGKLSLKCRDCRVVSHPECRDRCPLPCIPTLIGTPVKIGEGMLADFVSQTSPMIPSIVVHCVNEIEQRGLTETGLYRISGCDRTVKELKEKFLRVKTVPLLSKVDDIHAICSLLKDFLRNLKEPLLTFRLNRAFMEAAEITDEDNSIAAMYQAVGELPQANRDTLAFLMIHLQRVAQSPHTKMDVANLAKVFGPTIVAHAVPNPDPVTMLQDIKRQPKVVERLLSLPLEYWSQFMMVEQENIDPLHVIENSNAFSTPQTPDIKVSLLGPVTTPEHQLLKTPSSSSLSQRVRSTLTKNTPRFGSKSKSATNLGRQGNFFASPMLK
The test is described as follows: blockers of MgcRacGAP-driven Rac1 GTP hydrolysis – biochemical, ADP Hunter fluorescence, primary and confirmatory, confirmation (AID 624330). The test is classed as functional.

Test [11] addresses T4, Mannose-6-phosphate isomerase (Homo sapiens, UniProt P34949).
T4 sequence (P34949 whole entry): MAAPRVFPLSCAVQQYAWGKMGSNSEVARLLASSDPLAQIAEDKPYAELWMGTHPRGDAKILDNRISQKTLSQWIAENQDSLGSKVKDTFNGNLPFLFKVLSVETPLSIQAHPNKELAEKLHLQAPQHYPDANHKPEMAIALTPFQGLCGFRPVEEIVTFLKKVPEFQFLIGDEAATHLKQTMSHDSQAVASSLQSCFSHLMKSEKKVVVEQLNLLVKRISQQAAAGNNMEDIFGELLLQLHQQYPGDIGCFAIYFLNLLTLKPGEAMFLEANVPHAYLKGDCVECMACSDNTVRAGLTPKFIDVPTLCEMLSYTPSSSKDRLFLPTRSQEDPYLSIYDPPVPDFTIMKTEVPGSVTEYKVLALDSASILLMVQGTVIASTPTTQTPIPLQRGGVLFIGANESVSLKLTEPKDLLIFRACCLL
The test is described as follows: phosphomannose isomerase inhibition – biochemical, fluorescence intensity, confirmation (AID 1535).

Test [12] concerns the target T5, Carboxy-terminal domain RNA polymerase II polypeptide A small phosphatase 1 (Homo sapiens, UniProt Q9GZU7).
T5 sequence (Q9GZU7 whole entry): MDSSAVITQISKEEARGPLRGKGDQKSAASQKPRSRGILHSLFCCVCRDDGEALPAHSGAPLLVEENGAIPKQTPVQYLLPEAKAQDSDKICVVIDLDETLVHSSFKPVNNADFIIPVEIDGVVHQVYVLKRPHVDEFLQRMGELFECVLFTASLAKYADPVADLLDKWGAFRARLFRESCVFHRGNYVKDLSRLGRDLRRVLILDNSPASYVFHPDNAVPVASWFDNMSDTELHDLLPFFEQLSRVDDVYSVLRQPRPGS
The test is described as follows: CTDSP1 inhibitors, concentration-response, biochemical, absorbance readout, ultra-high-throughput screen actives (AID 540297). The test is classed as functional.

The target in test [13] is T4, Mannose-6-phosphate isomerase. In words: MPI enzyme activity inhibition – biochemical, fluorescence intensity, coupled assay, primary screen (AID 1209).
In another test the target is Genome polyprotein (dengue virus type 2, UniProt P29990). In words: flavivirus cap methylation enzyme inhibition – biochemical, confirmation dose response, primary screen (AID 588689). In kind it is functional.
Genome polyprotein, sequence (P29990 2492-3391 limits assumed): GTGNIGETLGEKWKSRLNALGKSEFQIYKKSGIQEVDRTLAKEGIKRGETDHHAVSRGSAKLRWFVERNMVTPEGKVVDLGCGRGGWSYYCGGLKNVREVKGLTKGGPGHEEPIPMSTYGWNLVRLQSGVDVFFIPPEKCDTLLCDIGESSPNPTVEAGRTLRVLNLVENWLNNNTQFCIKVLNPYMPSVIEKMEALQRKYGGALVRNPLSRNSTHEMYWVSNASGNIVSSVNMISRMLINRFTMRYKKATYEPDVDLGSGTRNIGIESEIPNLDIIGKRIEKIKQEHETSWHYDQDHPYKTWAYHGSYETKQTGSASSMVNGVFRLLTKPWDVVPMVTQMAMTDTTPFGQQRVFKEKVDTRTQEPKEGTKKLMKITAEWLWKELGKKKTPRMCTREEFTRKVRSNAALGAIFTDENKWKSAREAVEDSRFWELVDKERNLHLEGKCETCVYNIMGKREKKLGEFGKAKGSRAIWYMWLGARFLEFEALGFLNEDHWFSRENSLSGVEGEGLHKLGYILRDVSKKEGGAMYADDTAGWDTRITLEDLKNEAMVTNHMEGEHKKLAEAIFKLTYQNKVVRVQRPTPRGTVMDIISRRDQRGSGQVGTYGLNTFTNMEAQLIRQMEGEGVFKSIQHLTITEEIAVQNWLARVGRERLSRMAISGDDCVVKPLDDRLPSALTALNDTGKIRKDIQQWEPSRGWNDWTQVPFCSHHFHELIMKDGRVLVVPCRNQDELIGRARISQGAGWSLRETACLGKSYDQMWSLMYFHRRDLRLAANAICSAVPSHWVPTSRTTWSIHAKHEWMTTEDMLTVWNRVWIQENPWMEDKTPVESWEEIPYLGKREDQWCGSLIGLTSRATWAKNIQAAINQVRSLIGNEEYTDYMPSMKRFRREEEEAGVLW
Test [14] has as its target DNA dC->dU-editing enzyme APOBEC-3G (Homo sapiens, UniProt Q9HC16). In kind it is functional.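 Further: Dose-response counterscreen measuring inhibition of APOBEC3G DNA deaminase activity, run while confirming APOBEC3A inhibitors.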
For test [15], the target named is T4, Mannose-6-phosphate isomerase. The test is described as follows: MPI inhibition at elevated mannose 6-phosphate – biochemical, fluorescence intensity, high mannose 6-phosphate, primary screen (AID 1220).
Test [16] concerns the target T6, Voltage-gated N-type calcium channel alpha-1B subunit/Amyloid beta A4 precursor protein-binding family A member 1 (Homo sapiens, UniProt Q00975+Q02410). The test is classed as protein assay.
The nature of test [17]: viability loss in HeLa cells – cytotoxicity control for MgcRacGAP inhibitor project, dose response (AID 624300). The test is classed as functional.
Test [18] deals with T6, Voltage-gated N-type calcium channel alpha-1B subunit/Amyloid beta A4 precursor protein-binding family A member 1. In kind it is protein assay. This is another data set of the same source.
The target in test [19] is Eukaryotic translation initiation factor 4E (Mus musculus, UniProt P63073). In words: blockers of eIF4G binding by eIF4E – biochemical, TR-FRET, dose response (AID 855).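 Further: potency for disrupting eIF4E binding to eIF4GI seen as loss of FRET.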 The test is classed as functional.
Eukaryotic translation initiation factor 4E, sequence (P63073 whole entry): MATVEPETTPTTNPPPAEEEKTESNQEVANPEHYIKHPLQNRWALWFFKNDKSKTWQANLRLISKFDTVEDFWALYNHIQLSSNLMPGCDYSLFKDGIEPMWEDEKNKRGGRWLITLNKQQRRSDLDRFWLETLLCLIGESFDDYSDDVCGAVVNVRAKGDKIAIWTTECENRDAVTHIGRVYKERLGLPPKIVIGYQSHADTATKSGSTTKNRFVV
Another test deals with T7, X-box-binding protein 1 (Homo sapiens, UniProt P17861).
T7 sequence (P17861 whole entry): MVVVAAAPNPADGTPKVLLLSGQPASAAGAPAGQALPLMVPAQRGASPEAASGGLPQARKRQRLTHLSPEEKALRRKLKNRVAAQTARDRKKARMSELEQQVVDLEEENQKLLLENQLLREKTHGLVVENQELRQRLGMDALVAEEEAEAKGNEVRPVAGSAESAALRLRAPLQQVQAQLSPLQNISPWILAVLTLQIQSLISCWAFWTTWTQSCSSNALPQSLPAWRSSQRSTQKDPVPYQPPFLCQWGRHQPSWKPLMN
The test is classed as functional, Cricetulus griseus.

In test [20] the target is Heat shock protein HSP 90-alpha (Homo sapiens, UniProt P07900). The test is classed as functional, organism-based.
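Wherever Absolute IC50 (XBP1) is given: confirmatory dose-response counter-screen serving a CHOP assay.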

T6 sequence (Q00975 whole entry): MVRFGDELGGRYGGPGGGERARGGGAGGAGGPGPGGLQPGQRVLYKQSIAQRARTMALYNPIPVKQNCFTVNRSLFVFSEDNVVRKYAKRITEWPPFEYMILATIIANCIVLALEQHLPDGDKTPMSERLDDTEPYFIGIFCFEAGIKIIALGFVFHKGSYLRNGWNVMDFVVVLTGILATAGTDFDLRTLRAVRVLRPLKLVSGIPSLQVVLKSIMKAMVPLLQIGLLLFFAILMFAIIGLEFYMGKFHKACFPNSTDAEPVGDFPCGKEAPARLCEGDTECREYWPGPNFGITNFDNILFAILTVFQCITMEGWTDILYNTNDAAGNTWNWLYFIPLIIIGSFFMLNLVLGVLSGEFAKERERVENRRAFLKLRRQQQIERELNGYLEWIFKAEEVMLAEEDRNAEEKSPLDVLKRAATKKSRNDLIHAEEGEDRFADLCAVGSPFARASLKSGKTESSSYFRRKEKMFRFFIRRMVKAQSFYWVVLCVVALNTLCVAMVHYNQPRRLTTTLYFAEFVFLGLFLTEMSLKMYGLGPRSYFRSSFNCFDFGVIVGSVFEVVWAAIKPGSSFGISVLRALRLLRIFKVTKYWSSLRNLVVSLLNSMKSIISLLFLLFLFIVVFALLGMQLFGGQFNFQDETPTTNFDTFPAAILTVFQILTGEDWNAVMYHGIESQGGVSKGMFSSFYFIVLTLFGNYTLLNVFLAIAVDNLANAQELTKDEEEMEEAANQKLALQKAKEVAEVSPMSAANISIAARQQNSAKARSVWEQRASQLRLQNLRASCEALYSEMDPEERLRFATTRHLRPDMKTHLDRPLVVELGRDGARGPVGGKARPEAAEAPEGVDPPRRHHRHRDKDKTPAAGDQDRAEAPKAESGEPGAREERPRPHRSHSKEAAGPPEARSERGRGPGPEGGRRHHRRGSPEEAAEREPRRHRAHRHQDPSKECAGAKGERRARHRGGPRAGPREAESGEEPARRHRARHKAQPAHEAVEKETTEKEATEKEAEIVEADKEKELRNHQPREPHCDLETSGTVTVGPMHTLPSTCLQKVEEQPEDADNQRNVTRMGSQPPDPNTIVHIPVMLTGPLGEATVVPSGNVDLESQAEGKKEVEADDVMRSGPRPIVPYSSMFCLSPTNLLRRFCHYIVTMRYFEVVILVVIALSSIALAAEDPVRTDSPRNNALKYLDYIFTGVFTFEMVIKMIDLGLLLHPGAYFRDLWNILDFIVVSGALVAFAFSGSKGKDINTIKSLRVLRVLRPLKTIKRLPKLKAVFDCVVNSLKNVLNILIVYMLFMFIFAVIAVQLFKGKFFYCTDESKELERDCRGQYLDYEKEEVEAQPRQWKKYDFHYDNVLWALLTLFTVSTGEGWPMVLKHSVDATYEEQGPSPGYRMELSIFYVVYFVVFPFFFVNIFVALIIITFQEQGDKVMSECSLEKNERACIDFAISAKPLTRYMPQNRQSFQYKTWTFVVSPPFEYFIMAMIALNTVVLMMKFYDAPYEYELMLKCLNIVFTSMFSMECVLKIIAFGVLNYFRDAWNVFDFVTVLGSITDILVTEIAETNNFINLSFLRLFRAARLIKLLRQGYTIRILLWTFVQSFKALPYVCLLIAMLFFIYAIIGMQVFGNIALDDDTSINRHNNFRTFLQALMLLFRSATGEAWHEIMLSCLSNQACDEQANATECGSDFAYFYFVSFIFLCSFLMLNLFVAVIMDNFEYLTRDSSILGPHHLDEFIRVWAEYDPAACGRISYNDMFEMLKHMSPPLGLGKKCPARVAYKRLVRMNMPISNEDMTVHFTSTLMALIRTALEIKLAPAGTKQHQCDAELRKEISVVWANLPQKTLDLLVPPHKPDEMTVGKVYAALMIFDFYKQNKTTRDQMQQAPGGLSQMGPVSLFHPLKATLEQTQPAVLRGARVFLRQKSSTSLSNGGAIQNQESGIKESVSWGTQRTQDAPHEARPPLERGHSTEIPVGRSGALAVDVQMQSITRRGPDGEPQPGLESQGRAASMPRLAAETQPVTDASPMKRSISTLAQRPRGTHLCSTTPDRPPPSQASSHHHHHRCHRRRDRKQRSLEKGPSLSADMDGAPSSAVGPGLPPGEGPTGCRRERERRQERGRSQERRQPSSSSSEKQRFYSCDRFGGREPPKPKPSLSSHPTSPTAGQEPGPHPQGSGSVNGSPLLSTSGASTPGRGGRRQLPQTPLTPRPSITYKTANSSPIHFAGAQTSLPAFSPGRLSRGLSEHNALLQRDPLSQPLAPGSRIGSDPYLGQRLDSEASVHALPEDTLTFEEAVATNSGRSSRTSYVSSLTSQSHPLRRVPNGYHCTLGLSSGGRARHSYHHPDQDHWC
T6 sequence (Q02410 whole entry): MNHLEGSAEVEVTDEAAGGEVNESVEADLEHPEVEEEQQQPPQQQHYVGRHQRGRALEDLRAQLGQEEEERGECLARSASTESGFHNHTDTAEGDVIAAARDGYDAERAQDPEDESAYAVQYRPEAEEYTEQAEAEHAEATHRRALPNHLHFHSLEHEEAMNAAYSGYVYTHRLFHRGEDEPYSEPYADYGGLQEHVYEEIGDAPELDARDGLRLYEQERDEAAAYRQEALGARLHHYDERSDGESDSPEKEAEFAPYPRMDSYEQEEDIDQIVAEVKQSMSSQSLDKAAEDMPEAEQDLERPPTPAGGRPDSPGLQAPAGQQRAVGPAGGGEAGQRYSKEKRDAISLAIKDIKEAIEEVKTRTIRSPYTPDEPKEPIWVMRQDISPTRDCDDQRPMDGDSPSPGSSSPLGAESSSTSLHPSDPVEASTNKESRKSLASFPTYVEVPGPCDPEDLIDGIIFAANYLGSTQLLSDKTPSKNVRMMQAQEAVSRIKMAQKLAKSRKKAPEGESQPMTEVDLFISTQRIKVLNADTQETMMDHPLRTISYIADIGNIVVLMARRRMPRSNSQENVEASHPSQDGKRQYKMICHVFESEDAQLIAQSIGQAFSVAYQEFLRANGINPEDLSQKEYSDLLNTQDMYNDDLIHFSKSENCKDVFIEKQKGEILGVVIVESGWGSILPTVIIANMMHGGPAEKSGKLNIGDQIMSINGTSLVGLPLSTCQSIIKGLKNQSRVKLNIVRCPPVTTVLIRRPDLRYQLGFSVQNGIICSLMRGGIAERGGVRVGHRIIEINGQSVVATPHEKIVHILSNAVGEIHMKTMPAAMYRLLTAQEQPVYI
DNA dC->dU-editing enzyme APOBEC-3A, sequence (P31941 whole entry): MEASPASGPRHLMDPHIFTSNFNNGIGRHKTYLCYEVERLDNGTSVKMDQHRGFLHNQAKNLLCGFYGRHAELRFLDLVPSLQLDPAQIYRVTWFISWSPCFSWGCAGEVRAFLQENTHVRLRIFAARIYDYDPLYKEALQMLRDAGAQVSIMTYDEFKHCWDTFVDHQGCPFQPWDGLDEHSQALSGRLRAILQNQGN

Take `O=C(N/N=C/c1cc([N+](=O)[O-])ccc1N1CCNCC1)c1ccc([N+](=O)[O-])cc1`: the AC50 (as a rule, the concentration at which the activity in the assay is half-maximal) was 24.1 µM (active) in the test with A-375 [1], 8.19 µM (active) in test [2] and 25.1 µM (inconclusive) on Cytochrome P450 2D6. Besides, the EC50 (in general, the concentration that produces a half-maximal response) in [3] is 12.1 µM (active); in test [4], 11.1 µM (active).
Take `CC(C)C(c1nnnn1C1CCCC1)N1CCC(C(N)=O)CC1` (stereo not given): the AC50 in the test on Escherichia coli [5] was 164 µM (active).
As to `CCc1ccc2c(c1)cc(CN(Cc1ccco1)C(C)=O)c1nnnn12`, the values for the AC50 in the test with Escherichia coli [5] and in the test with Escherichia coli [6] were 98.8 µM (active) and 24.6 µM (active), respectively.
Turning to `O=C(Cn1ncc(Cl)c(Cl)c1=O)NC1CCCCC1`, the AC50 was > 35 µM (active) in the test on A-375 [1], > 35 µM (active) in the test on A-375 [7] and 6.82 µM (active) in [2].
`O=C(O)CCn1cc(C=C2C(=O)NC(=S)NC2=O)c(-c2cccc(Br)c2)n1`: the IC50 (in general, the midpoint of a concentration-inhibition curve) in test [8] was 2.39 µM (active); at Phosphomannomutase 2, > 100 µM (inactive); in [9], 15.8 µM (active); in [10], 89.9 µM (active); in test [11], 9.83 µM (active); in test [12], 4.47 µM (active). Moreover, the IC50 in test [13] was 11.7 µM (active); at Genome polyprotein, 6.04 µM (active); in test [14], 29.3 µM (active).
Turning to `Clc1nss/c1=N\c1ccc(Br)cc1`, the IC50 at Phosphomannomutase 2 is > 100 µM (inactive); in test [10], 37.5 µM (active); in test [11] it was 7.28 µM (active); in test [15] it was > 50 µM (not active); in [16], 4.16 µM (active); in test [18] it was 11.6 µM (active). In [19], the IC50 was 50 µM (inactive). In addition, the CC50 (in general, the concentration giving 50% cytotoxicity) in test [17] is 100 µM (active). Moreover, the “Absolute IC50 (XBP1)” value at X-box-binding protein 1 was < 10 µM. The AC50 in [20] is 24.4 µM (active).
